# Experimental data: patent US20100204295A1, “TREATMENT OF ALLERGIC DISEASE WITH IMMUNOMODULATOR COMPOUNDS” (SCICLONE PHARMACEUTICALS, INC., priority 2007, published 2010)
# Several values for one entry are separate records, joined by “and”; a condition that tells them apart may be missing. Equal entries are not always repeated. Entries after “also recorded” stand apart in the source; their conditions may differ.
# Legend:
# [1] = system: 5-FU-immune-suppressed animals; conditions: in vivo; cited from earlier work
# interleukin-4 = test: ConA-induced IL-4 production by splenocytes after intra-abdominal SCV-07; assay type: in vivo, mice; conditions: 1 μg/kg, five daily intra-abdominal injections; ConA 5 μg/mL
# Protocol: SCV-07 was administered to intact wild mice in the form of five daily intra-abdominal injections at dosages of 0.1 and 1.0 μg/kg of body weight. After this, isolation of spleen cells was carried out the cytokine synthesis was induced in the culture by stimulating the cells with concanavalin A at a dosage of 5 μg/mL. The levels of the synthesized cytokines were determined by quantitative immunoenzyme analysis. […] The changes on ConA-induced production of two other [sic] cytokines—IFN-γ and IL-4, as is apparent from FIG. 1, were reciprocal in nature.
# [2] = system: immediate allergic reaction to OVA aerosol; test: Immediate response to aerosol, comments recorded during aerosolization, guinea pig model; assay type: in vivo, Dunkin-Hartley guinea pigs; conditions: one animal per line, listed as SCV
# Protocol: Female Dunkin-Hartley guinea pigs (200-350 g) were purchased from Charles River, Kingston, New York facility, Barrier […]. Animals were shipped to Duluth, Minn., and held in our animal facility for 5-7 days prior to beginning the experiment. Experimental treatment groups are outlined in Table 7. Animals were sensitized on day 0 ip with 50 mg/kg OVA. On Days 17, 18, 19, and 20, animals received an ip injection between 8 and 10 am with PBS, SCV-07 at 1 ug/kg, or SCV-07 at 10 ug/kg (Peptide treatment). Between 8 and 10 a.m. on Day 21, animals were administered peptide 2 hours before OVA or saline (NSS) aerosol challenge. 30 min before OVA or NSS aerosol challenge each animal was injected ip with an antihistamine (6.1 mg/kg pyrilamine maleate) to prevent death due to the anaphylactic response that accompanies aerosol OVA challenge. Animals were exposed to aerosol in pairs with either 1% OVA solution or NSS for 5 min in a plexiglass chamber (22×22×29 cm) using a DeVilbiss Model 35B Ultrasonic Nebulizer. Animals were observed during the total 5 min aerosolization and comments recorded. Within 22-24 hours after challenge, animals were euthanized, bled by cardiac puncture, lavaged and lung lobes removed for measurement of cellular infiltration. At the time of OVA or NSS challenge and euthanasia, animal weights ranged from approximately 350-550 g, with the average weight approximately 420 g. This experimental protocol is similar to that used in previously published studies (Regal and Fraser, 1996; Regal et al., 2000). The experimenter was not blinded to the treatment. […] In general, animals sensitized and challenged with OVA and antihistamine pre-treated will not die from the allergen challenge, but will experience labored breathing and oftentimes coughing and gasping. All 7 animals in the PBS OVA treatment group had some visible reaction as expected. The remarkable finding was the number of animals in the SCV 1 OVA and SCV 10 OVA treatment groups that had no apparent reaction to the OVA aerosol. […] The obvious speculation is that SCV-07 attenuates the immediate bronchoconstriction to allergen challenge. Follow-up experiments are definitely indicated by this observation.
# [3] = system: eosinophils and neutrophils in the lung tissue; test: Lung tissue eosinophil peroxidase (EPO) and myeloperoxidase (MPO), guinea pig model; assay type: in vivo, Dunkin-Hartley guinea pigs
# Protocol: Animals were sensitized on day 0 ip with 50 mg/kg OVA. On Days 17, 18, 19, and 20, animals received an ip injection between 8 and 10 am with PBS, SCV-07 at 1 ug/kg, or SCV-07 at 10 ug/kg (Peptide treatment). Between 8 and 10 a.m. on Day 21, animals were administered peptide 2 hours before OVA or saline (NSS) aerosol challenge. 30 min before OVA or NSS aerosol challenge each animal was injected ip with an antihistamine (6.1 mg/kg pyrilamine maleate) to prevent death due to the anaphylactic response that accompanies aerosol OVA challenge. Animals were exposed to aerosol in pairs with either 1% OVA solution or NSS for 5 min in a plexiglass chamber (22×22×29 cm) using a DeVilbiss Model 35B Ultrasonic Nebulizer. Animals were observed during the total 5 min aerosolization and comments recorded. Within 22-24 hours after challenge, animals were euthanized, bled by cardiac puncture, lavaged and lung lobes removed for measurement of cellular infiltration. At the time of OVA or NSS challenge and euthanasia, animal weights ranged from approximately 350-550 g, with the average weight approximately 420 g. This experimental protocol is similar to that used in previously published studies (Regal and Fraser, 1996; Regal et al., 2000). Animals were euthanized with pentobarbital (100-200 mg/kg), bled by cardiac puncture, and lavaged with room temperature PBS. For bronchoalveolar lavage (BAL), the trachea was cannulated and 4 volumes of PBS were introduced into the tracheal cannula and gently withdrawn. Total lavage volume was 60 ml/kg. The BAL was centrifuged to sediment the cells, and the BAL cell pellet re-suspended in 1.0 ml PBS for determination of the total number of white blood cells (WBC) recovered in the BAL of each animal. The BAL supernatant was frozen at −70 C for determination of total protein recovered in the BAL supernatant using the method of Lowry et al. (1951). Total white blood cells in BAL were counted by standard methods in a hemacytometer using Turk's solution. Differential counts were obtained from cytospin preparations of BAL cells (3×10^4 cells) stained with a modified Wrights' stain (Diff Quik, American Scientific Products, McGraw Park, Ill.). Four hundred cells were counted and identified as eosinophils, neutrophils, or mononuclear cells. […] EPO activity from the homogenized lung after lavage was expressed as total OD/min from the left caudal lobe. MPO activity from the homogenized lung after lavage was expressed as total units of enzyme activity from the right caudal lobe. […] OD412 of the BAL supernatant was also determined to estimate the number of RBCS that were lysed during the lavage procedure and prior to re-suspension of the cells for counting. […]
smiles,measurement,setting,value
"N[C@H](CCC(=O)N[C@@H](Cc1c[nH]c2ccccc12)C(=O)O)C(=O)O [SCV-07, γ-D-glutamyl-L-tryptophan]",Effect on 5-FU-immune-suppressed animals,[1],strong immunostimulatory effect
same,Change in ConA-induced production of IL-4 by the splenocytes,interleukin-4,two-fold reduction
same,Comment recorded during aerosolization,"[2]; SCV 1 NSS: SCV-07 1 ug/kg ip, NSS aerosol",huddling in corner; also recorded: no rx
same,Comment recorded during aerosolization,"[2]; SCV 1 OVA: SCV-07 1 ug/kg ip, OVA aerosol",slight cough 1x? and 1 cough?
same,Comment recorded during aerosolization,"[2]; SCV 10 NSS: SCV-07 10 ug/kg ip, NSS aerosol","huddling in corner, no rx"
same,Comment recorded during aerosolization,"[2]; SCV 10 OVA: SCV-07 10 ug/kg ip, OVA aerosol",no rx (3×) and slight cough and 1 cough? and deeper breathing (2×)
same,Lung MPO in animals challenged with NSS aerosol,"[3]; 1 ug/kg, p<0.05 vs PBS NSS control",significantly reduced
same,Change in lung EPO from NSS to OVA vs PBS treatment,"[3]; 10 ug/kg, ANOVA contrast",greater
same,Lung EPO in animals challenged with NSS aerosol,"[3]; 10 ug/kg, p<0.05 vs PBS NSS control",significantly reduced
same,Change in lung MPO from NSS to OVA,[3]; ANOVA contrast vs PBS treatment,did not differ
